Results published in ChEMBL document CHEMBL1177735, “Amaryllidaceae alkaloids belonging to different structural subgroups display activity against apoptosis-resistant cancer cells” (J Nat Prod, 2010).
Where a name gives a salt, the structure may show the parent alone.

Tests used:
[1] = system: B16-F10; assay: Cytotoxicity against mouse B16F10 cells after 72 hrs by MTT colorimetric assay; type: functional, cell-based; details: B16-F10, 72 h
[2] = Cytotoxicity against human OE21 cells after 72 hrs by MTT colorimetric assay; type: functional, cell-based; details: OE21, 72 h
[3] = system: SK-MEL; assay: Cytotoxicity against human SK-MEL cells after 72 hrs by MTT colorimetric assay; type: functional, cell-based
[4] = Cytotoxicity against human U373 cells after 72 hrs by MTT colorimetric assay; type: functional, cell-based, U-373MG ATCC; details: U373 MG
[5] = system: A549; assay: Cytotoxicity against human A549 cells after 72 hrs by MTT colorimetric assay; type: functional, cell-based; details: A549, 72 h
[6] = Cytotoxicity against human Hs683 cells after 72 hrs by MTT colorimetric assay; type: functional, cell-based; details: Hs 683, 72 h

SMILES | IC50 [1] [µM] | IC50 [2] [µM] | IC50 [3] [µM] | IC50 [4] [µM] | IC50 [5] [µM] | IC50 [6] [µM]
COC1C=C[C@@]23CCN(Cc4cc5c(cc42)OCO5)[C@@H]3C1 (stereo partly specified) | > 10 | 97 | > 10 | > 10 | > 10 | > 10
CO[C@@H]1C=C[C@@]23c4cc5c(cc4CN(C[C@@H]2O)[C@H]3C1)OCO5 [(+)-HAEMANTHAMINE] | 6.8 | 6.8 | 8.5 | 7.7 | 4.5 | 7
COC1=C[C@@H]2CCN3Cc4cc5c(cc4[C@@H]([C@H]23)[C@@H]1O)OCO5 [AMARBELLISINE] |  | 6.7 | 8.3 | 7.2 |  | 8.2
COc1c2c(cc3c1OCO3)[C@]13C=C[C@H](OC)C[C@H]1N(C2)C[C@@H]3O [AMBELLINE] | > 10 | 86 | > 10 | > 10 | > 10 | > 10
COc1c2c(cc3c1OCO3)[C@@]13CCN(C2)[C@@H]1CC=C[C@H]3O [BUPHANAMINE] | > 10 | > 10 | > 10 | > 10 | > 10 | > 10
O[C@@H]1CC=C2CCN3Cc4cc5c(cc4[C@H]1[C@@H]23)OCO5 [CARANINE] | > 10 | > 10 | > 10 | > 10 | > 10 | > 10
CN1CC[C@@H]2C[C@H](O)[C@@H]3OC(=O)c4cc5c(cc4[C@H]3[C@@H]21)OCO5 [CLIVONINE HYDROCHLORIDE] | > 10 | > 10 | > 10 | > 10 | > 10 | > 10
COc1cc2c(cc1OC)[C@@H]1[C@H](O)[C@@H](OC)C=C3CCN(C2)[C@H]31 [GALANTHINE] | > 10 | > 10 | > 10 | > 10 | > 10 | > 10
CO[C@@H]1C=C[C@@]23c4cc5c(cc4[C@@H](O)N(C[C@H]2O)[C@H]3C1)OCO5 [HAEMANTHIDINE] | 3.1 | 3.7 | 4.2 | 3.8 | 4 | 4.3
O[C@H]1[C@H]2c3cc4c(cc3CN3CCC(=C[C@@H]1O)[C@H]23)OCO4 [LYCORINE] |  | 4.5 | 8.4 | 7.6 | 4.2 | 6.9
CC(O)CC(=O)O[C@H]1C[C@H]2CCN(C)[C@H]2[C@@H]2c3cc4c(cc3C(=O)O[C@H]21)OCO4 (stereo partly specified) [NOBILISITINE B] | > 10 | > 10 | > 10 | > 10 | > 10 | > 10
COc1cc2c(cc1O)CN1CCC3=CC[C@@H](O)[C@@H]2[C@@H]31 [NORPLUVINE] | > 10 | > 10 | > 10 | > 10 | > 10 | > 10
COc1cc2c(cc1O)[C@@H]1[C@H](O)[C@@H](O)C=C3CCN(C2)[C@H]31 [PSEUDOLYCORINE] |  | 7.9 | > 10 | 7.8 | 7.4 | 7.9
CO[C@@H]1C=C[C@@]23c4cc5c(cc4CO[C@]2(O)CN(C)[C@H]3C1)OCO5 [TAZETTINE] | > 10 | 78 | > 10 | > 10 | > 10 | > 10
[O-]c1cc2c3c(c1)c1cc4c(cc1c[n+]3CC2)OCO4 [UNGEREMINE] | > 10 | > 10 | > 10 | 83 | > 10 | > 10
